Assays:
[1] = Protein binding rate by equilibrium dialysis, SD rats plasma; type: in vitro ADME; conditions: rat, plasma; SD rats, as listed in PK Table 8; read-out: Plasma protein unbound rate PPB (Unbound %)
Experimental: (§1) Purpose of the assay: Protein binding rate of the assay compounds in plasma of CD-1 mice, SD rats, beagle dogs, cynomolgus monkeys and human was determined by equilibrium dialysis.
(§2) Procedure of the assay: Plasma samples with a compound concentration of 2 μM were prepared using plasma of the above five species, placed in a 96-well equilibrium dialysis device, and dialyzed with phosphate buffer solution at 37±1° C. for 4 hours. Warfarin was used as the control compound in this assay. The concentrations of the assay compounds in plasma and dialysis buffer were determined by LC-MS/MS method.

[2] = system: KRAS^G12C-mutated H358 cells; assay: H358 cell assay: inhibition of proliferation (CellTiter-Glo, 5 days); type: cell-based; conditions: Homo sapiens, 120 h; NCI-H358 cells, 5 days incubation
Experimental: Compounds were assayed for IC50 of inhibition of proliferation of KRAS^G12C-mutated H358 cells.
The main instrument used in this assay was a Nivo multi-label analyzer (PerkinElmer).
2.4 Method of the Assay: • 1) NCI-H358 cells were inoculated in a white 96-well plate, and each well contained 80 μL of cell suspension and 4000 NCI-H358 cells. […] The assay was carried out in duplicate. 78 μL of medium was added to the intermediate plate, and then 2 μL of the serially diluted compound was transferred to each well of the intermediate plate according to the corresponding position. After mixing well, 20 μL per well was transferred to the cell plate. […] The cell plate was incubated in a carbon dioxide incubator for 5 days. Another cell plate was prepared, and the signal value of the cell plate was read on the day of compound addition as the maximum value (Max value in the equation below) to participate in data analysis. 25 μL of cell viability chemiluminescence detection reagent was added to each well of the cell plate, and the plate was incubated at room temperature for 10 minutes to stabilize the luminescence signal. A multi-label analyzer was used for reading the plate. • 3) […]

[3] = system: KRAS^G12C-mutated MIA-PA-CA-2 cells; assay: Inhibition of proliferation of KRAS^G12C-mutated MIA-PA-CA-2 cells (CellTiter-Glo, 72 h); type: cell-based, human; conditions: Homo sapiens, MIA PaCa-2, 72 h incubation
Experimental: Compounds were assayed for IC50 of inhibition of proliferation of KRAS^G12C-mutated MIA-PA-CA-2 cells.
The main reagent used in this assay included CellTiter-Glo (Promega, Cat. No. G7573).
The main instrument used in this assay was PerkinElmer EnVision multi-function microplate reader.
1.4 Method of the Assay • 1) Adherent cells were digested with trypsin to form a cell suspension, and the cell suspension was counted for later use. • 2) An appropriate amount of cells was added into a centrifuge tube, and a cell culture medium was added to make up the required volume; then the cells were plated to a 96-well plate at a final density of 2000 cells/well, 100 μL of culture medium. • 3) After incubating for 24 hr, the compound was formulated to 10 mM with DMSO, and serially diluted 3-fold with DPBS (Dulbecco's Phosphate Buffered Saline) to 9 points; 10 μL was added to each well in duplicate. 10 μL of DPBS per well was added to the assay control wells (Con). • 4) On the same day, 50 μL of CellTiter Glo was added to another cell culture plate without compounds, and the fluorescence value was read by EnVision. […] The fluorescence value was read by EnVision. • 6) Data analysis: The inhibition rate of cells in each well was calculated according to the following equation: […]

[4] = Protein binding rate by equilibrium dialysis, CD-1 mice plasma; type: in vitro ADME; conditions: CD-1, mouse, plasma; mice, as listed in PK Table 9; read-out: Plasma protein unbound rate PPB (Unbound %)
Experimental: as §1, §2

Question: For `C=C(F)C(=O)N1CCN(c2nc(OC[C@@]34CCCN3C[C@H](F)C4)nc3c2COC(c2c(F)c(N)cc(C)c2C(F)(F)F)C3)C[C@@H]1CC#N` (stereo partly shown) [Compound 17], which fraction unbound at 4 h, 2 μM [1] is on record?
Answer: 0.048

Question: And the IC50 [2]?
Answer: 600 pM

Question: And the IC50 [3]?
Answer: 440 pM

Question: And the fraction unbound at 4 h, 2 μM [4]?
Answer: 0.0154
